{"source": "patent US9394266B2", "about": "“Solid state forms of cabazitaxel and processes for preparation thereof” (IVAX International GmbH, priority 2012, dated 2016)", "assay": "Hygroscopicity test: exposure to controlled relative humidity, XRPD and Karl-Fischer water content before and after", "type": "physicochemical", "details": "about room temperature; for conversion to another solid state form of Cabazitaxel (polymorphic stability): normal atmospheric humidity, 60%, 80% and 100% RH, two days exposure; for hygroscopicity: various relative humidity conditions", "procedure": "Hygroscopicity Test Procedure:\nAbout 150 mg of a sample was placed to a cell with controlled relative humidity. The samples were exposed to 60%, 80% and 100% relative humidity for a period of two days. XRPD analysis and water content by coulometric Karl-Fischer titration were carried out before and after the exposure to the defined relative humidity. Coulometric Karl-Fischer Titration: Water was determined by KF Oven method (832 KF Thermoprep connected to 831 KF Coulometer). Water from the sample (50 mg of cabazitaxel) was released by nitrogen stream at 130° C. Extraction time was 10 minutes.", "data": [{"smiles": "CO[C@H]1C(=O)[C@]2(C)[C@@H](OC)C[C@H]3OC[C@@]3(OC(C)=O)[C@H]2[C@H](OC(=O)c2ccccc2)[C@]2(O)C[C@H](OC(=O)[C@H](O)[C@@H](NC(=O)OC(C)(C)C)c3ccccc3)C(C)=C1C2(C)C", "note": "[Form X, Cabazitaxel methyl isobutyl ketone solvate]", "values": [{"measurement": "conversion to another solid state form of Cabazitaxel (polymorphic stability)", "value": "does not convert to any other forms of Cabazitaxel"}, {"measurement": "hygroscopicity", "value": "low-hygroscopicity form"}]}, {"smiles": "CO[C@H]1C(=O)[C@]2(C)[C@@H](OC)C[C@H]3OC[C@@]3(OC(C)=O)[C@H]2[C@H](OC(=O)c2ccccc2)[C@]2(O)C[C@H](OC(=O)[C@H](O)[C@@H](NC(=O)OC(C)(C)C)c3ccccc3)C(C)=C1C2(C)C", "note": "[Form VII, Cabazitaxel ethyl acetate solvate]", "values": [{"measurement": "conversion to another solid state form of Cabazitaxel (polymorphic stability)", "value": "does not convert to any other form of Cabazitaxel"}, {"measurement": "hygroscopicity", "value": "low-hygroscopicity form"}]}, {"smiles": "CO[C@H]1C(=O)[C@]2(C)[C@@H](OC)C[C@H]3OC[C@@]3(OC(C)=O)[C@H]2[C@H](OC(=O)c2ccccc2)[C@]2(O)C[C@H](OC(=O)[C@H](O)[C@@H](NC(=O)OC(C)(C)C)c3ccccc3)C(C)=C1C2(C)C", "note": "[acetone solvate, Cabazitaxel acetone solvate, reference compound]", "values": [{"measurement": "conversion to another solid state form of Cabazitaxel (polymorphic stability)", "value": "already transform to the anhydrous form B after two days"}]}]}
